This passage reports cytotoxicity results from ChEMBL document CHEMBL3507680, “University of Dundee, Gates Library screen for HepG2 cell viability”.

This series is described as follows: Human HepG2 cell viability assay in 384 well format. Format: toxicity, cell-based. On the set-up: dose 125 nL, time 70.5 hour; concentration not given beside the values. The settings on record: HepG2 cells, read-out: Inhibition.
Turning to `Cc1ncncc1C(=O)Nc1cnn(CC(=O)NC2CCCC2)c1`, the cytotoxicity at 70.5 h was -19.5%.

With `CC(C)NC(=O)N1CCN(S(=O)(=O)C2CC2)CC2(CC(=O)N(C)C2)C1` (centres undefined), the cytotoxicity at 70.5 h was determined as 0.827%.

Take `CSC(C)(C)CNC(=O)NCc1cccc(-n2cncn2)c1`: the cytotoxicity at 70.5 h was -0.656%.

Turning to `Cc1ccccc1OCCSc1nnc(CC2CCS(=O)(=O)C2)n1C` (centres undefined), the cytotoxicity at 70.5 h was -7.8%.

As to `Cc1cnn(CC2CN(c3nnc(C)c(C)c3C#N)CCO2)c1` (centres undefined), the cytotoxicity at 70.5 h was -3.86%.

Take `Cc1cc(C)n(CC2CCCCN2C(=O)c2ccc3nncn3c2)n1` (centres undefined): the cytotoxicity at 70.5 h was -2.04%.

`Cc1ccc(-c2ncc(C(=O)N3CCCC(CCN)C3)c(O)n2)cc1` (centres undefined): the cytotoxicity at 70.5 h was -7.81%.

Turning to `CC(C)(C)C1CC(=O)Nc2c1cnn2Cc1ccco1` (centres undefined), the cytotoxicity at 70.5 h was -17.9%.

`CC(Cn1cccn1)NCc1ccc(Cl)s1` (centres undefined): the cytotoxicity at 70.5 h is -4.9%.

As for `CCN(C)C(=O)C1(c2ccc(F)cc2F)CCC1`, the cytotoxicity at 70.5 h came out at 4.95%.

As for `COCCNc1cc(-c2ccccc2CCN)c2cc[nH]c2n1`, the cytotoxicity at 70.5 h is -2.8%.

With `CN(C)c1cc(C(=O)NCc2cccnc2-n2cncn2)ccn1`, the cytotoxicity at 70.5 h was -16.1%.

In the case of `COCCN1C[C@H]2CC[C@@H]1CN(Cc1ccc3ccccc3n1)C2`, the cytotoxicity at 70.5 h was -5.95%.

Regarding `Cc1nccc([C@@H]2C[C@@H]3CCN(S(=O)(=O)N(C)C)C[C@H]3O2)n1`, the cytotoxicity at 70.5 h worked out at 1.05%.

Regarding `COc1ccccc1C(=O)NC(C)CC(=O)O` (centres undefined), the cytotoxicity at 70.5 h was -7.64%.

As for `CNS(=O)(=O)CCNc1cc(C)nc2cc(C)nn12`, the cytotoxicity at 70.5 h is -2.52%.

For `CC(C)c1nc(CCN(C)c2nccc(N3CCCC(O)C3)n2)no1` (centres undefined), the cytotoxicity at 70.5 h is -8.03%.

Regarding `O=C(NCc1ccccn1)[C@@H]1COC[C@H]2CNC[C@H]21`, the cytotoxicity at 70.5 h is -12.9%.

For the compound `O=C1NC2(CCc3ccccc31)CCN(Cc1cccnc1)C2` (centres undefined), the cytotoxicity at 70.5 h worked out at 3.7%.

Turning to `CC(C)n1ccnc1CN1CCCN(C(=O)c2cnn(C)c2)CC1`, the cytotoxicity at 70.5 h was -0.464%.

Turning to `O=C(c1cocn1)N1CCC2(CC1)CC(OCC1CC1)CO2` (centres undefined), the cytotoxicity at 70.5 h was -8.99%.

`O=C1NCCO[C@H]2CN(C(=O)CCc3ccc(Cl)cc3)CC[C@@H]12`: the cytotoxicity at 70.5 h is -17.3%.

As to `CCC[C@@H]1CN(Cc2ccccc2SC)C[C@H]1NC(C)=O`, the cytotoxicity at 70.5 h was -5.44%.

Consider `CN1CCCC(c2cccc(CCC(N)=O)n2)C1` (centres undefined), for which the cytotoxicity at 70.5 h was -3.92%.

On to `CC(C)C1CCCN1CC(=O)NCc1ccc(OCC(N)=O)cc1` (centres undefined), for which the cytotoxicity at 70.5 h came out at 2.47%.

For `Cc1ccc(CCNC(=O)Cn2nc(C)n(Cc3ccccc3)c2=O)o1`, the cytotoxicity at 70.5 h came to 19.8%.

`O=C(c1nc(Cc2c[nH]c3ccccc23)no1)N1CCCCC1`: the cytotoxicity at 70.5 h was -7.41%.

Consider `COc1ccccc1C1CNC(=O)c2nc(-c3cn(C)nc3C)[nH]c2C1` (centres undefined), for which the cytotoxicity at 70.5 h turned out to be 8.73%.

`COc1cccc(O)c1CN1CCCC(Nc2cccc(F)c2)C1` (centres undefined): the cytotoxicity at 70.5 h was determined as 0.789%.

Regarding `Cc1cnc(N2CCC3(CC2)CC(N(C)Cc2ccncc2)C3)nc1`, the cytotoxicity at 70.5 h is -5.66%.

For `Cc1ccc(C(O)CNC(=O)NCc2c(C)cc(C)[nH]c2=O)cc1` (centres undefined), the cytotoxicity at 70.5 h is -9.83%.

On to `Cc1cnn(CC2CCCCN2CC(=O)Nc2nncs2)c1` (centres undefined), for which the cytotoxicity at 70.5 h is -1.03%.

As to `Cn1c(CN2CCOCC2)nnc1C1CCCN(CC(N)=O)C1` (centres undefined), the cytotoxicity at 70.5 h stood at 3.41%.

Turning to `COCC(=O)NCc1cc(=O)n2c(n1)CN(Cc1ccncc1)CCC2`, the cytotoxicity at 70.5 h was -0.67%.

Regarding `Cc1nc(CC(=O)N2CCc3nnc(N(C)C)cc3C2)cs1`, the cytotoxicity at 70.5 h was determined as 0.153%.

In the case of `O=C1NCC(C(=O)Nc2ncc(Cc3ccccc3F)s2)N1` (centres undefined), the cytotoxicity at 70.5 h is 3.26%.

In the case of `CC(C)(C)c1c[nH]c([C@@H]2COCCN2C2CCOCC2)n1`, the cytotoxicity at 70.5 h came out at 12.2%.

Consider `O=C1N(Cc2cccc(F)c2)CCC12CCCN(c1ncc(F)cn1)C2` (centres undefined), for which the cytotoxicity at 70.5 h was -5.64%.

With `Cn1ccnc1CN1CCCN(Cc2noc(C3CC3)n2)CC1`, the cytotoxicity at 70.5 h is -1.01%.
